# Data taken from PubChem BioAssay AID256 (DTP/NCI, 2004).
# “And” between values parts separate entries of the source, which are not always exact repeats. Equal values may be shown once. Toxic doses and inconclusive results are not listed.
# Tested on: CD2F1 mice, L1210 leukemia ip, survival T/C
# Assay: NCI In Vivo Anticancer Drug Screen. Data for tumor model L1210 Leukemia (intraperitoneal) in CD2F1 (CDF1) mice
# Conditions: higher = longer survival
# In short: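 Antitumor effect is scored in animals hosting a serially transplanted tumor. Values compare compound-dosed animals against vehicle-only controls as a simple quotient.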
# [1] = endpoint: mean survival time, dose: 12.5 mg/kg/injection, schedule: Q01DX005 (ip), vehicle: water
# [2] = endpoint: mean survival time, dose: 50.0 mg/kg/injection, schedule: Q01DX005 (ip), vehicle: water
# [3] = endpoint: mean survival time, dose: 100.0 mg/kg/injection, schedule: Q04DX003 (ip), vehicle: saline with Tween-80
# [4] = endpoint: mean survival time, dose: 50.0 mg/kg/injection, schedule: Q01DX009 (ip), vehicle: saline with Tween-80
# [5] = endpoint: mean survival time, dose: 100.0 mg/kg/injection, schedule: Q01DX009 (ip), vehicle: saline with Tween-80
# [6] = endpoint: mean survival time, dose: 200.0 mg/kg/injection, schedule: Q01DX009 (ip), vehicle: saline with Tween-80
# [7] = endpoint: mean survival time, dose: 200.0 mg/kg/injection, schedule: Q04DX003 (ip), vehicle: saline with Tween-80
# [8] = endpoint: mean survival time, dose: 400.0 mg/kg/injection, schedule: Q04DX003 (ip), vehicle: saline with Tween-80
# [9] = endpoint: mean survival time, dose: 25.0 mg/kg/injection, schedule: Q01DX009 (ip), vehicle: saline with Tween-80
# [10] = endpoint: mean survival time, dose: 100.0 mg/kg/injection, schedule: Q04DX002 (ip), vehicle: saline with Tween-80
# [11] = endpoint: mean survival time, dose: 200.0 mg/kg/injection, schedule: Q04DX002 (ip), vehicle: saline with Tween-80
# [12] = endpoint: mean survival time, dose: 100.0 mg/kg/injection, schedule: Q01DX009 (ip), vehicle: Klucel (hydroxypropylcellulose) (HPC)
# [13] = endpoint: mean survival time, dose: 200.0 mg/kg/injection, schedule: Q01DX009 (ip), vehicle: Klucel (hydroxypropylcellulose) (HPC)
# [14] = endpoint: mean survival time, dose: 400.0 mg/kg/injection, schedule: Q01DX009 (ip), vehicle: Klucel (hydroxypropylcellulose) (HPC)
compound,measurement,setting,value
CSc1nc(N)c2c(n1)nc(N(C)C)n2O,T/C,[1],106 % of control
same,T/C,"endpoint: mean survival time, dose: 25.0 mg/kg/injection, schedule: Q01DX005 (ip), vehicle: water",102 % of control
same,T/C,[2],93 % of control
same,T/C,"endpoint: mean survival time, dose: 100.0 mg/kg/injection, schedule: Q01DX005 (ip), vehicle: water",95 % of control
same,T/C,"endpoint: mean survival time, dose: 200.0 mg/kg/injection, schedule: Q01DX005 (ip), vehicle: water",97 % of control
CC1(C(F)(F)F)CC(=O)NN1 (stereo not drawn),T/C,"endpoint: mean survival time, dose: 12.5 mg/kg/injection, schedule: Q01DX009 (ip), vehicle: saline",95 % of control
same,T/C,"endpoint: mean survival time, dose: 25.0 mg/kg/injection, schedule: Q01DX009 (ip), vehicle: saline",97 % of control
same,T/C,"endpoint: mean survival time, dose: 50.0 mg/kg/injection, schedule: Q01DX009 (ip), vehicle: saline",97 % of control
same,T/C,[3],97 % of control
CC(Cc1ccccc1)NC1=NCCO1 (stereo not drawn),T/C,[4],96 % of control
same,T/C,[5],104 % of control
same,T/C,[3],104 % of control and 98 % of control and 89 % of control
same,T/C,[6],93 % of control
same,T/C,[7],91 % of control and 87 % of control
same,T/C,[8],86 % of control
O=c1[nH]c(=O)n(O)c2nc[nH]c12,T/C,[9],102 % of control
same,T/C,[4],98 % of control
Cc1csc2[nH]c(=O)[nH]c(=O)c12,T/C,[3],96 % of control
same,T/C,[7],94 % of control
same,T/C,[8],87 % of control
COc1cc(OC)cc(C(=O)Cl)c1,T/C,"endpoint: mean survival time, dose: 100.0 mg/kg/injection, schedule: Q04DX003 (ip), vehicle: saline sonified",98 % of control
same,T/C,"endpoint: mean survival time, dose: 200.0 mg/kg/injection, schedule: Q04DX003 (ip), vehicle: saline sonified",95 % of control
same,T/C,"endpoint: mean survival time, dose: 400.0 mg/kg/injection, schedule: Q04DX003 (ip), vehicle: saline sonified",91 % of control
O=C1OC2C(Cl)CC(Cl)CC2C=C1c1cccc([N+](=O)[O-])c1 (stereo not drawn),T/C,[5],90 % of control
same,T/C,[10],90 % of control
same,T/C,[6],94 % of control
same,T/C,[11],90 % of control
same,T/C,"endpoint: mean survival time, dose: 400.0 mg/kg/injection, schedule: Q01DX009 (ip), vehicle: saline with Tween-80",105 % of control
same,T/C,"endpoint: mean survival time, dose: 400.0 mg/kg/injection, schedule: Q04DX002 (ip), vehicle: saline with Tween-80",94 % of control
COc1cc(C)cc(N)n1,T/C,"endpoint: mean survival time, dose: 6.25 mg/kg/injection, schedule: Q01DX001 (ip), vehicle: saline with Tween-80",89 % of control
same,T/C,"endpoint: mean survival time, dose: 12.5 mg/kg/injection, schedule: Q01DX001 (ip), vehicle: saline with Tween-80",92 % of control
same,T/C,"endpoint: mean survival time, dose: 25.0 mg/kg/injection, schedule: Q01DX001 (ip), vehicle: saline with Tween-80",89 % of control
Cc1nc(N)nc2c1CCC(=O)N2C,T/C,"endpoint: mean survival time, dose: 50.0 mg/kg/injection, schedule: Q04DX002 (ip), vehicle: saline with Tween-80",97 % of control
same,T/C,"endpoint: mean survival time, dose: 100.0 mg/kg/injection, schedule: Q01DX001 (ip), vehicle: Klucel (hydroxypropylcellulose) (HPC)",102 % of control
same,T/C,[10],97 % of control
same,T/C,"endpoint: mean survival time, dose: 200.0 mg/kg/injection, schedule: Q01DX001 (ip), vehicle: Klucel (hydroxypropylcellulose) (HPC)",90 % of control
same,T/C,[11],97 % of control
O=C1CC2(C(=O)N1CN1CCCCC1)c1ccccc1-c1ccccc12,T/C,"endpoint: mean survival time, dose: 12.5 mg/kg/injection, schedule: Q01DX009 (ip), vehicle: Klucel (hydroxypropylcellulose) (HPC)",94 % of control and 102 % of control
same,T/C,"endpoint: mean survival time, dose: 25.0 mg/kg/injection, schedule: Q01DX009 (ip), vehicle: Klucel (hydroxypropylcellulose) (HPC)",91 % of control and 105 % of control
same,T/C,"endpoint: mean survival time, dose: 50.0 mg/kg/injection, schedule: Q01DX009 (ip), vehicle: Klucel (hydroxypropylcellulose) (HPC)",98 % of control and 100 % of control
same,T/C,[12],94 % of control and 102 % of control
same,T/C,[13],100 % of control
same,T/C,[14],158 % of control
CC(=O)C1CCC2C3CC=C4CC(OC(=O)CCC(C)C)CCC4(C)C3CCC12C (stereo not drawn),T/C,[3],95 % of control
same,T/C,[7],95 % of control
same,T/C,[8],92 % of control
O=C(c1ccccc1)N(N=C(c1ccc([N+](=O)[O-])cc1)c1ccc([N+](=O)[O-])cc1)c1ccccc1,T/C,[3],93 % of control
same,T/C,[8],87 % of control
OC(C1CCCCN1)C1CC(c2ccccc2)Nc2c(Cl)cc(Cl)cc21 (stereo not drawn),T/C,"endpoint: mean survival time, dose: 100.0 mg/kg/injection, schedule: Q04DX003 (ip), vehicle: saline",97 % of control
Clc1ccc(OCC2CO2)cc1 (stereo not drawn),T/C,"endpoint: mean survival time, dose: 25.0 mg/kg/injection, schedule: Q04DX003 (ip), vehicle: saline with Tween-80",101 % of control
same,T/C,"endpoint: mean survival time, dose: 50.0 mg/kg/injection, schedule: Q04DX003 (ip), vehicle: saline with Tween-80",101 % of control
same,T/C,[3],98 % of control
CC1(C)CN(c2ccccc2)NC1=O,T/C,"endpoint: mean survival time, dose: 1.25 mg/kg/injection, schedule: Q01DX009 (ip), vehicle: Klucel (hydroxypropylcellulose) (HPC)",101 % of control
same,T/C,"endpoint: mean survival time, dose: 2.5 mg/kg/injection, schedule: Q01DX009 (ip), vehicle: Klucel (hydroxypropylcellulose) (HPC)",98 % of control
same,T/C,"endpoint: mean survival time, dose: 5.0 mg/kg/injection, schedule: Q01DX009 (ip), vehicle: Klucel (hydroxypropylcellulose) (HPC)",101 % of control
COc1cc(C(=O)C=C(C(F)(F)F)C(F)(F)F)cc(OC)c1OC,T/C,[3],101 % of control
same,T/C,[7],98 % of control
NC(=O)c1cn(C2OC(CO)C(O)C2O)c2ncn3ncnc3c12 (stereo not drawn),T/C,"endpoint: mean survival time, dose: 3.13 mg/kg/injection, schedule: Q01DX005 (ip), vehicle: water",113 % of control
same,T/C,"endpoint: mean survival time, dose: 6.25 mg/kg/injection, schedule: Q01DX005 (ip), vehicle: water",112 % of control
same,T/C,[1],116 % of control
same,T/C,[2],98 % of control
CC(C)(C)NC(=O)Nc1ccc(Cl)c(Cl)c1,T/C,"endpoint: mean survival time, dose: 100.0 mg/kg/injection, schedule: Q01DX001 (ip), vehicle: saline with Tween-80",93 % of control
same,T/C,"endpoint: mean survival time, dose: 200.0 mg/kg/injection, schedule: Q01DX001 (ip), vehicle: saline with Tween-80",88 % of control
same,T/C,"endpoint: mean survival time, dose: 400.0 mg/kg/injection, schedule: Q01DX001 (ip), vehicle: saline with Tween-80",93 % of control
O=C1c2ccccc2S(=O)(=O)N1CC(O)COc1ccc(Cl)cc1 (stereo not drawn),T/C,[3],101 % of control
same,T/C,[7],101 % of control
same,T/C,[8],93 % of control
CSc1nc(NN)c2cnn(C3OC(CO)C(O)C3O)c2n1 (stereo not drawn),T/C,"endpoint: median survival time, dose: 11.3 mg/kg/injection, schedule: Q01DX005 (ip), vehicle: saline with Tween-80",107 % of control
same,T/C,"endpoint: median survival time, dose: 22.5 mg/kg/injection, schedule: Q01DX005 (ip), vehicle: saline with Tween-80",104 % of control
same,T/C,"endpoint: median survival time, dose: 45.0 mg/kg/injection, schedule: Q01DX005 (ip), vehicle: saline with Tween-80",102 % of control
same,T/C,"endpoint: median survival time, dose: 90.0 mg/kg/injection, schedule: Q01DX005 (ip), vehicle: saline with Tween-80",105 % of control
O=c1oc(-c2ccc([N+](=O)[O-])cc2)nc2cc(Cl)ccc12,T/C,[4],97 % of control
same,T/C,[5],108 % of control
same,T/C,[6],103 % of control
O=C(CNC(=O)Nc1cccc(C(F)(F)F)c1)N/N=C/c1ccccc1Cl,T/C,"endpoint: mean survival time, dose: 12.5 mg/kg/injection, schedule: Q01DX009 (ip), vehicle: saline with Tween-80",87 % of control
same,T/C,[9],87 % of control
same,T/C,[4],87 % of control and 96 % of control
same,T/C,[5],103 % of control
same,T/C,[6],100 % of control
CC1CCCC(C)N1C1=NCCO1 (stereo not drawn),T/C,"endpoint: mean survival time, dose: 5.0 mg/kg/injection, schedule: Q04DX003 (ip), vehicle: saline",102 % of control
same,T/C,"endpoint: mean survival time, dose: 10.0 mg/kg/injection, schedule: Q04DX003 (ip), vehicle: saline",97 % of control
same,T/C,"endpoint: mean survival time, dose: 20.0 mg/kg/injection, schedule: Q04DX003 (ip), vehicle: saline",94 % of control
Clc1ccccc1N=Cc1ccc2c(c1)OCO2,T/C,[12],105 % of control
same,T/C,"endpoint: mean survival time, dose: 100.0 mg/kg/injection, schedule: Q04DX003 (ip), vehicle: alcohol",103 % of control
same,T/C,[13],100 % of control
same,T/C,"endpoint: mean survival time, dose: 200.0 mg/kg/injection, schedule: Q04DX003 (ip), vehicle: alcohol",109 % of control
same,T/C,[14],100 % of control
same,T/C,"endpoint: mean survival time, dose: 400.0 mg/kg/injection, schedule: Q04DX003 (ip), vehicle: alcohol",105 % of control
